Experimental data taken from patent US20110034526A1, “Benzimidazole Compounds” (Wyeth LLC, priority 2007, published 2011).
Like-named read-outs stand apart in the source and are kept apart here.

Key:
[1] = biological target: T1, human LXRα (Homo sapiens, UniProt Q13133); assay: Ligand-binding test procedure for human LXRα (3H T0901317 tracer, flash plates); conditions: biotinylated hLXRα, tracer 3H T0901317
T1 construct: biotin (biotinylated); made in house; host or cells: E. coli (crude extract)
T1 sequence (Q13133 1-447): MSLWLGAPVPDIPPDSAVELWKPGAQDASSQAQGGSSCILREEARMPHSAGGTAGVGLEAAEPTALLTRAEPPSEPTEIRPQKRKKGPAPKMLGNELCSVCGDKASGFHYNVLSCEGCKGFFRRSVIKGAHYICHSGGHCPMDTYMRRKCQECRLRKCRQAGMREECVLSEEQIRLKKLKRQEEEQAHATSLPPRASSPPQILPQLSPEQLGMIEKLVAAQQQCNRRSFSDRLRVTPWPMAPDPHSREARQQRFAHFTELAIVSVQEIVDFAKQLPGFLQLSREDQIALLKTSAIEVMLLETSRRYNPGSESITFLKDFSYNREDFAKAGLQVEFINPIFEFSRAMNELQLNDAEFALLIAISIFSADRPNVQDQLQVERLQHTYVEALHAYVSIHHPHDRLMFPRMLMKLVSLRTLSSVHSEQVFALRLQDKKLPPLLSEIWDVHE

[2] = biological target: T2, human LXRβ (Homo sapiens, UniProt P55055); assay: Ligand-binding test procedure for human LXRβ (3H T0901317 tracer, flash plates)
T2 construct: biotin (biotinylated); made in house; host or cells: E. coli (crude extract)
T2 sequence (P55055 1-460): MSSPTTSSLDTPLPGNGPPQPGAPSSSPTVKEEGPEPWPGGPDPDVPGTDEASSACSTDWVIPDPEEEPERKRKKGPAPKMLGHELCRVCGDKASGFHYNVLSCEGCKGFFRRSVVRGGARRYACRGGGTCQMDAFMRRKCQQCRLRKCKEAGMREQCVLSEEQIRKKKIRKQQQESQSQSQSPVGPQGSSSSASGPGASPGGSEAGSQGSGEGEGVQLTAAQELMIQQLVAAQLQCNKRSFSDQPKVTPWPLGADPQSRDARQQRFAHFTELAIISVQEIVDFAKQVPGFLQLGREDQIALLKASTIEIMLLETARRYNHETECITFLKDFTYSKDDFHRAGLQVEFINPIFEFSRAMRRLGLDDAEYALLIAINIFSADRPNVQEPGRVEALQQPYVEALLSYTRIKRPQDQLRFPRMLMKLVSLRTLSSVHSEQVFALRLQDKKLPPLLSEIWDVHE

[3] = system: ABCA1 gene; assay: Quantitative analysis of ABCA1 gene regulation in THP-1 cells (real-time PCR); assay type: cell-based, human; conditions: read-out: EC50 ABCA1
Procedure: The compounds of formula (I) effect on the regulation of the ABCA1 gene was evaluated using the following procedure.
The THP-1 monocytic cell line (ATCC # TIB-202) was obtained from American Type Culture Collection (Manassas, Va.) and cultured in RPMI 1640 medium (Gibco, Carlsbad, Calif.) containing 10% FBS, 2 mM L-glutamine, and 55 uM beta-Mercaptoethanol (BME). […] Differentiated THP-1 cells were treated with test compounds or ligands dissolved in DMSO (Sigma, D-8779) in culture medium lacking phorbal ester. […] Unstimulated cells treated with vehicle were included as negative controls on each plate. An LXR agonist reference, N-(2,2,2-trifluoro-ethyl)-N-[4-(2,2,2-trifluoro-1-hydroxy-1-trifluoromethyl-ethyl)-phenyl]-benzenesulfonamide (Schultz, Joshua R., Genes & Development (2000), 14(22), 2831-2838), was dosed at 1.0 uM and served as a positive control. […] Results of antagonist analysis are expressed as % antagonism and IC50 (in μM).
Total cellular RNA was isolated from treated cells cultured in 96-well plates using PrepStation 6100 (Applied Biosystems, Foster City, Calif.), according to the manufacturer's recommendations. RNA was resuspended in ribonuclease-free water and stored at −70° C. prior to analysis. RNA concentrations were quantitated with RiboGreen test procedure, #R-11490 (Molecular Probes, Eugene, Oreg.).
Gene-specific mRNA quantitation was performed by real-time PCR with the Perkin Elmer Corp. chemistry on an ABI Prism 7700 Sequence detection system (Applied Biosystems, Foster City, Calif.) according to the manufacturer's instructions. Samples (50-100 ng) of total RNA were assayed in duplicate or triplicate in 50 μl reactions using one-step RT-PCR and the standard curve method to estimate specific mRNA concentrations. Sequences of gene-specific primer and probe sets were designed with Primer Express Software (Applied Biosystems, Foster City, Calif.). […] RT and PCR reactions were performed according to PE Applied Biosystem's protocol for Taqman Gold RT-PCR or Qiagen's protocol for Quantitect probe RT-PCR. Relative levels of ABCA1 mRNA are normalized using GAPDH mRNA or 18S rRNA probe/primer sets purchased commercially (Applied Biosystems, Foster City, Calif.).
Mean, standard deviation and statistical significance of duplicate evaluations of RNA samples were assessed using ANOVA, one-way analysis of variance using SAS analysis.

[4] = Gene regulation by LXR (Human), differentiated THP-1 cells, 18 hrs, ABCA1 mRNA

Row | Compound | IC50 [1] | IC50 [2] | EC50 [3, 4] | EC50 ([3]; Homo sapiens, THP-1, 18 h)
1 | Cc1nc2c(C(F)(F)F)cccc2n1-c1cccc(OCc2cccc(S(C)(=O)=O)c2)c1 [Example 107, 2-methyl-1-(3-{[3-(methylsulfonyl)benzyl]oxy}phenyl)-4-(trifluoromethyl)-1H-benzimidazole] | 1960 nM | 120 nM | 3530 nM | 
2 | CCS(=O)(=O)c1cccc(Oc2ccc(-n3c(C)nc4c(C(F)(F)F)cccc43)cc2)c1 [Example 65, 1-{4-[3-(ethylsulfonyl)phenoxy]phenyl}-2-methyl-4-(trifluoromethyl)-1H-benzimidazole] | 7.2 nM | 1.3 nM | 355 nM | 
3 | COc1ccc(-n2c(C(F)(F)c3ccccc3)nc3c(C(F)(F)F)cccc32)cc1 [Example 74, 2-[difluoro(phenyl)methyl]-1-(4-methoxyphenyl)-4-(trifluoromethyl)-1H-benzimidazole] | 635 nM | 32 nM | 440 nM | 
4 | Cc1nc2c(C(F)(F)F)cccc2n1-c1cccc(-c2cccc(S(C)(=O)=O)c2)c1 [Example 75, 2-methyl-1-[3′-(methylsulfonyl)biphenyl-3-yl]-4-(trifluoromethyl)-1H-benzimidazole] | 304 nM | 12.7 nM |  | 215 nM
5 | Cc1cc(Oc2cccc(S(=O)(=O)C(C)C)c2)ccc1-n1c(C)nc2c(C(F)(F)F)cccc21 [Example 95, 2-methyl-1-(2-methyl-4-{3-[(1-methylethyl)sulfonyl]phenoxy}phenyl)-4-(trifluoromethyl)-1H-benzimidazole] | 1290 nM | 61 nM | 409 nM | 
6 | CC(C)S(=O)(=O)c1cccc(Oc2ccc(-n3c(C(F)(F)F)nc4c(C(F)(F)F)cccc43)cc2)c1 [Example 73, 1-{4-[3-(isopropylsulfonyl)phenoxy]phenyl}-2,4-bis(trifluoromethyl)-1H-benzimidazole] | 800 nM | 47 nM | 470 nM | 
7 | CCS(=O)(=O)c1cccc(Oc2ccc(-n3c(C(F)(F)F)nc4c(C(F)(F)F)cccc43)cc2)c1 [Example 71, 1-{4-[3-(ethylsulfonyl)phenoxy]phenyl}-2,4-bis(trifluoromethyl)-1H-benzimidazole] | 1100 nM | 83 nM |  | 290 nM
8 | Cc1nc2c(C(F)(F)F)cccc2n1-c1cccc(Oc2cccc(S(=O)(=O)CCCN)c2)c1 [Example 37, 3-[(3-{3-[2-methyl-4-(trifluoromethyl)-1H-benzimidazol-1-yl]phenoxy}phenyl)sulfonyl]propan-1-amine] | 1470 nM | 41 nM | 4700 nM | 
9 | CCc1nc2c(C(F)(F)F)cccc2n1-c1ccc(Oc2cc(F)cc(S(C)(=O)=O)c2)cc1 [Example 69, 2-ethyl-1-{4-[3-fluoro-5-(methylsulfonyl)phenoxy]-phenyl}-4-(trifluoromethyl)-1H-benzimidazole] | 280 nM | 20 nM | 245 nM | 
10 | CCc1nc2c(C(F)(F)F)cccc2n1-c1ccc(Oc2cccc(S(C)(=O)=O)c2)cc1 [Example 67, 2 ethyl-1-{4-[3-(methylsulfonyl)phenoxy]phenyl}-4-(trifluoromethyl)-1H-benzimidazole] | 197 nM | 99 nM | 846 nM | 
11 | CS(=O)(=O)c1ccc(Oc2ccc(Cl)c(-n3cnc4c(C(F)(F)F)cccc43)c2)cc1 [Example 83, 1-{2-chloro-5-[4-(methylsulfonyl)phenoxy]phenyl}-4-(trifluoromethyl)-1H-benzimidazole] | 277 nM | 33 nM |  | 110 nM
12 | CS(=O)(=O)c1cc(F)cc(Oc2ccc(Cl)c(-n3cnc4c(C(F)(F)F)cccc43)c2)c1 [Example 82, 1-{2-chloro-5-[3-fluoro-5-(methylsulfonyl)phenoxy]phenyl}-4-(trifluoromethyl)-1H-benzimidazole] | 102 nM | 4.9 nM |  | 1210 nM
13 | Cc1nc2c(C(F)(F)F)cccc2n1-c1cccc(Oc2cccc(S(=O)(=O)CCCS(C)(=O)=O)c2)c1 [Example 76, 2-methyl-1-[3-(3-{[3-(methylsulfonyl)propyl]sulfonyl}phenoxy)phenyl]-4-(trifluoromethyl)-1H-benzimidazole] | 319 nM | 20 nM |  | 155 nM
14 | CS(=O)(=O)c1cccc(Oc2cccc(-n3c(C(F)F)nc4c(C(F)(F)F)cccc43)c2)c1 [Example 33, 2-(difluoromethyl)-1-{3-[3-(methylsulfonyl)phenoxy]phenyl}-4-(trifluoromethyl)-1H-benzimidazole] | 36 nM | 2 nM | 190 nM | 
15 | Cc1nc2c(C(F)(F)F)cccc2n1-c1cccc(Oc2cccc(S(=O)(=O)C3CC3)c2)c1 [Example 38, 1-{3-[3-(cyclopropylsulfonyl)phenoxy]phenyl}-2-methyl-4-(trifluoromethyl)-1H-benzimidazole] | 141 nM | 5.8 nM | 650 nM | 
16 | Cc1nc2c(C(F)(F)F)cccc2n1-c1ccc(Oc2cc(F)cc(S(C)(=O)=O)c2)cc1 [Example 66, 1-{4-[3-fluoro-5-(methylsulfonyl)phenoxy]phenyl}-2-methyl-4-(trifluoromethyl)-1H-benzimidazole] | 261 nM | 51 nM | 355 nM | 
17 | CCCS(=O)(=O)c1cccc(Oc2cccc(-n3c(C)nc4c(C(F)(F)F)cccc43)c2)c1 [Example 10, 2-methyl-1-{3-[3-(propylsulfonyl)phenoxy]phenyl}-4-(trifluoromethyl)-1H-benzimidazole] |  |  | 620 nM | 
18 | CCS(=O)(=O)c1cc(F)cc(Oc2cccc(-n3c(C)nc4c(C(F)(F)F)cccc43)c2)c1 [Example 7, 1-{3-[3-(ethylsulfonyl)-5-fluorophenoxy]phenyl}-2-methyl-4-(trifluoromethyl)-1H-benzimidazole] |  |  | 1240 nM | 
19 | Cc1nc2c(Cl)cccc2n1-c1cccc(Oc2ccc(S(C)(=O)=O)cc2)c1 [Example 48, 4-chloro-2-methyl-1-{3-[4-(methylsulfonyl)phenoxy]phenyl}-1H-benzimidazole] | 64 nM | 6 nM |  | 1120 nM
20 | CCCc1nc2c(C(F)(F)F)cccc2n1-c1cccc(Oc2cccc(S(C)(=O)=O)c2)c1 [Example 27, 1-{3-[3-(methylsulfonyl)phenoxy]phenyl}-2-propyl-4-(trifluoromethyl)-1H-benzimidazole] | 3.9 nM | 0.9 nM | 22 nM | 
